Data reported in PubChem BioAssay AID2060500 (Molecular Pharmacology Branch, DTP, NCI, 2025).

System: 596521-263-R-J1-PDC complex spheroids, viability % of control
Experiment: Anticancer human tumor 596521-263-R-J1-PDC patient-derived soft tissue sarcoma cell line growth inhibition [GQUAD]
Conditions: for IC50: curve of first compound; for viability, T/C: stronger effect = lower value
Method in brief: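 Tumor cells were grown as complex spheroids with HUVEC endothelial cells and mesenchymal stem cells as stroma. G-quadruplex stabilizers were combined with targeted agents over half-log dilutions from near the clinical Cmax, or from 10 microM.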

[1] = second compound 0.0316 µM, first compound 0.0316 µM
[2] = second compound 0.0316 µM, first compound 0.1 µM
[3] = second compound 0.0316 µM, first compound 0.316 µM
[4] = second compound 0.0316 µM, first compound 1 µM
[5] = second compound 0.0316 µM, first compound 3.16 µM
[6] = second compound 0.0316 µM, first compound 10 µM
[7] = second compound 0.1 µM, first compound 0.0316 µM
[8] = second compound 0.1 µM, first compound 0.1 µM
[9] = second compound 0.1 µM, first compound 0.316 µM
[10] = second compound 0.1 µM, first compound 1 µM
[11] = second compound 0.1 µM, first compound 3.16 µM
[12] = second compound 0.1 µM, first compound 10 µM
[13] = second compound 0.316 µM, first compound 0.0316 µM
[14] = second compound 0.316 µM, first compound 0.1 µM
[15] = second compound 0.316 µM, first compound 0.316 µM
[16] = second compound 0.316 µM, first compound 1 µM
[17] = second compound 0.316 µM, first compound 3.16 µM
[18] = second compound 0.316 µM, first compound 10 µM
[19] = second compound 1 µM, first compound 0.0316 µM
[20] = second compound 1 µM, first compound 0.1 µM
[21] = second compound 1 µM, first compound 0.316 µM
[22] = second compound 1 µM, first compound 1 µM
[23] = second compound 1 µM, first compound 3.16 µM
[24] = second compound 1 µM, first compound 10 µM
[25] = second compound 3.16 µM, first compound 0.0316 µM
[26] = second compound 3.16 µM, first compound 0.1 µM
[27] = second compound 3.16 µM, first compound 0.316 µM
[28] = second compound 3.16 µM, first compound 1 µM
[29] = second compound 3.16 µM, first compound 3.16 µM
[30] = second compound 3.16 µM, first compound 10 µM
[31] = second compound 10 µM, first compound 0.0316 µM
[32] = second compound 10 µM, first compound 0.1 µM
[33] = second compound 10 µM, first compound 0.316 µM
[34] = second compound 10 µM, first compound 1 µM
[35] = second compound 10 µM, first compound 3.16 µM
[36] = second compound 10 µM, first compound 10 µM
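Note: spheroids exposed to drugs for 7 days before viability reading.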
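Throughout, for viability, T/C: 100% = DMSO vehicle control viability.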

## O=C(NO)c1cnc(N2CCN(S(=O)(=O)c3ccc4ccccc4c3)CC2)nc1 + CN(C)c1ccc(Nc2c3ccc(NC(=O)CCN4CCCC4)cc3nc3cc(NC(=O)CCN4CCCC4)ccc23)cc1
Second compound 0.0316 µM
  IC50: 0.112 µM
Second compound 0.1 µM
  IC50: 0.0973 µM
Second compound 0.316 µM
  IC50: 0.126 µM
Second compound 1 µM
  IC50: 0.112 µM
Second compound 3.16 µM
  IC50: 0.0769 µM
Second compound 10 µM
  IC50: < 0.0316 µM
[1]
  viability, T/C: 77.3%
[2]
  viability, T/C: 54.4%
[3]
  viability, T/C: 7.95%
[4]
  viability, T/C: 0.72%
[5]
  viability, T/C: 0.35%
[6]
  viability, T/C: 0.33%
[7]
  viability, T/C: 76.3%
[8]
  viability, T/C: 49.4%
[9]
  viability, T/C: 9.87%
[10]
  viability, T/C: 0.62%
[11]
  viability, T/C: 0.38%
[12]
  viability, T/C: 0.34%
[13]
  viability, T/C: 76.5%
[14]
  viability, T/C: 60.9%
[15]
  viability, T/C: 7.1%
[16]
  viability, T/C: 0.61%
[17]
  viability, T/C: 0.29%
[18]
  viability, T/C: 0.34%
[19]
  viability, T/C: 74.4%
[20]
  viability, T/C: 54.7%
[21]
  viability, T/C: 7.49%
[22]
  viability, T/C: 0.53%
[23]
  viability, T/C: 0.35%
[24]
  viability, T/C: 1.39%
[25]
  viability, T/C: 65.4%
[26]
  viability, T/C: 45.4%
[27]
  viability, T/C: 7.07%
[28]
  viability, T/C: 0.61%
[29]
  viability, T/C: 0.37%
[30]
  viability, T/C: 0.78%
[31]
  viability, T/C: 48.2%
[32]
  viability, T/C: 35.6%
[33]
  viability, T/C: 3.88%
[34]
  viability, T/C: 0.37%
[35]
  viability, T/C: 0.37%
[36]
  viability, T/C: 0.34%

## CC1COCCN1c1cc(C2(S(C)(=N)=O)CC2)nc(-c2ccnc3[nH]ccc23)n1 (stereo unspecified) + Cc1[nH]c2ccc(F)cc2c1-c1nc2c3cccnc3c3ncccc3c2[nH]1
Second compound 0.0316 µM
  IC50: > 10 µM
Second compound 0.1 µM
  IC50: 8.24 µM
Second compound 0.316 µM
  IC50: 7.65 µM
Second compound 1 µM
  IC50: > 10 µM
Second compound 3.16 µM
  IC50: 6.02 µM
Second compound 10 µM
  IC50: 4.76 µM
[1]
  viability, T/C: 94.5%
[2]
  viability, T/C: 92.9%
[3]
  viability, T/C: 92.1%
[4]
  viability, T/C: 79.2%
[5]
  viability, T/C: 64.5%
[6]
  viability, T/C: 50.9%
[7]
  viability, T/C: 104%
[8]
  viability, T/C: 95.5%
[9]
  viability, T/C: 90.8%
[10]
  viability, T/C: 79.6%
[11]
  viability, T/C: 63.1%
[12]
  viability, T/C: 47.2%
[13]
  viability, T/C: 100%
[14]
  viability, T/C: 111%
[15]
  viability, T/C: 98.5%
[16]
  viability, T/C: 84.5%
[17]
  viability, T/C: 62.6%
[18]
  viability, T/C: 46.1%
[19]
  viability, T/C: 94.5%
[20]
  viability, T/C: 92.8%
[21]
  viability, T/C: 85.5%
[22]
  viability, T/C: 86.1%
[23]
  viability, T/C: 67.9%
[24]
  viability, T/C: 51.4%
[25]
  viability, T/C: 80.3%
[26]
  viability, T/C: 89%
[27]
  viability, T/C: 87.2%
[28]
  viability, T/C: 65.6%
[29]
  viability, T/C: 62.6%
[30]
  viability, T/C: 42.1%
[31]
  viability, T/C: 80.5%
[32]
  viability, T/C: 72.6%
[33]
  viability, T/C: 81%
[34]
  viability, T/C: 61.7%
[35]
  viability, T/C: 55.3%
[36]
  viability, T/C: 43.9%

## COc1ccc([C@@H](O)c2cc(-c3ncnc4cc(N5CCOCC5)ccc34)c(F)cc2Cl)nn1 + Cc1[nH]c2ccc(F)cc2c1-c1nc2c3cccnc3c3ncccc3c2[nH]1
Second compound 0.0316 µM
  IC50: > 10 µM
Second compound 0.1 µM
  IC50: > 10 µM
Second compound 0.316 µM
  IC50: > 10 µM
Second compound 1 µM
  IC50: > 10 µM
Second compound 3.16 µM
  IC50: > 10 µM
Second compound 10 µM
  IC50: 6.14 µM
[1]
  viability, T/C: 96.5%
[2]
  viability, T/C: 89%
[3]
  viability, T/C: 94.6%
[4]
  viability, T/C: 77.9%
[5]
  viability, T/C: 69.3%
[6]
  viability, T/C: 52%
[7]
  viability, T/C: 98.6%
[8]
  viability, T/C: 89.1%
[9]
  viability, T/C: 97.7%
[10]
  viability, T/C: 77.5%
[11]
  viability, T/C: 64.7%
[12]
  viability, T/C: 55.4%
[13]
  viability, T/C: 94.2%
[14]
  viability, T/C: 105%
[15]
  viability, T/C: 95.9%
[16]
  viability, T/C: 89.6%
[17]
  viability, T/C: 72.2%
[18]
  viability, T/C: 56.5%
[19]
  viability, T/C: 94.7%
[20]
  viability, T/C: 93.8%
[21]
  viability, T/C: 95.8%
[22]
  viability, T/C: 81.2%
[23]
  viability, T/C: 69.1%
[24]
  viability, T/C: 50.3%
[25]
  viability, T/C: 89.1%
[26]
  viability, T/C: 90.9%
[27]
  viability, T/C: 83%
[28]
  viability, T/C: 71.3%
[29]
  viability, T/C: 64.5%
[30]
  viability, T/C: 50.3%
[31]
  viability, T/C: 92.2%
[32]
  viability, T/C: 87.7%
[33]
  viability, T/C: 82%
[34]
  viability, T/C: 68.8%
[35]
  viability, T/C: 61.7%
[36]
  viability, T/C: 42.4%
